The values below come from PMC10518255, “A first-in-class pan-lysyl oxidase inhibitor impairs stromal remodeling and enhances gemcitabine response and survival in pancreatic cancer” (Nature Cancer, 2023).

Experiment [1] relates to KPC CCs liver colonization. The experiment is described as follows: Intrasplenic model of liver colonization, early administration of treatment. The note with it: for metastases/mm2: early administration, individual animals; for number of metastatic foci in liver / size of metastatic foci in liver: treatment from day 1 until day 10. The class given is in vivo, mouse. Here is the method:
Fig. 5 PXS-5505 administered in intrasplenic models of liver colonization. a, Schematic of the intrasplenic model of liver colonization with early administration of treatment. CCs were implanted into the spleen of BALB/c-Fox1nuAusb mice under anesthesia on day 0. Treatment with 0.9% saline (vehicle); twice-weekly Gem (100 mg kg^−1 i.p.) (Gem); daily PXS-5505 at 20 mg kg^−1 i.p. (PXS-5505) or daily PXS-5505 at 20 mg kg^−1 i.p. + twice-weekly Gem at 100 mg kg^−1 i.p. (PXS-5505 + Gem) was administered from day 1. At the end point (day 10) livers were collected and H&E-stained for scoring. Representative images of H&E-stained liver (taken from one biologically independent animal). Scale bar, 100 μm. b, Representative images of H&E-stained livers from each treatment group (n = 1 FOV taken from one biologically independent animal per group). Scale bars, 100 μm. c, Quantification of metastases per mm^2 (n = 9 biologically independent animals per group). Data are mean ± s.d. […] Data are mean ± s.d. Two-tailed P values were determined by an unpaired, nonparametric t-test with a Mann–Whitney U-test correction (comparison between two groups). e, Schematic of intrasplenic model of liver colonization with late administration of treatment. CCs were implanted into the spleen of BALB/c-Fox1nuAusb mice under anesthesia on day 0. Treatment with 0.9% saline (vehicle); twice-weekly Gem (100 mg kg^−1 i.p.) (Gem); daily PXS-5505 at 20 mg kg^−1 i.p. (PXS-5505); or daily PXS-5505 at 20 mg kg^−1 i.p. + three doses of Gem (100 mg kg^−1 i.p. (PXS-5505 + Gem) was administered from day 4. Representative images of H&E-stained liver (taken from one biologically independent animal). Scale bar, 100 μm. f, Quantification of metastases at endpoint (n = 10 biologically independent animals per treatment group, n = 5 biologically independent animals at day 4 for confirmation of overt metastases). Data are mean ± s.d. P values were determined by an unpaired, nonparametric t-test with a Mann–Whitney U-test correction (comparison between two groups). g, Representative images of H&E-stained livers from each treatment group. Scale bars, 100 μm. Source data
For the intrasplenic models, animals were randomized before receiving treatment. GLP-grade PXS-5505 (20 mg kg^−1) was administered daily i.p. (starting day 0 for the early stage and day 4 for the late stage) until the end point and gemcitabine (100 mg kg^−1) was administered on days 3, 6 and 9 for the early stage and days 5, 7 and 10 for the late stage.
KPC CCs (5 × 10^5 cells per mouse in 50 μl Hanks balanced saline solution) were slowly injected into the spleens of 8-week-old female BALB/c-Fox1nuAusb mice under anesthesia (isoflurane […], O2 1 l min^−1 with vacuum) as previous described. For the duration of the study mice were kept in conventional caging with environmental enrichment, access to standard chow, water ad libitum and 12-h light–dark cycle at ambient temperature and humidity. For intrasplenic studies, mice were culled at defined end points (10 d for early colonization studies and 11 d for late colonization studies). Animals with non-tumor-related complications that led to a premature end point were censored. At the end point, mice were imaged by whole-body bioluminescent imaging using an IVIS Spectrum (Caliper LS), culled and livers were removed for additional bioluminescent imaging before formalin fixing and paraffin embedding.
The 4-µm formalin-fixed paraffin-embedded (FFPE) sections were cut and stained for H&E following standard histopathology methodologies or stained for CK19 using the Bond RX H2(30) protocol detailed above. Whole liver sections were then digitized on an Aperio slide scanner for blinded analysis. The total number of liver metastases were quantified and determined using QuPath[57].

Another experiment has as its system KPC mouse model of PDAC. The experiment is described as follows: Quantification of liver metastases (H&E), KPC survival study (Fig. 4g). Type of experiment: in vivo. The note with it: for liver metastases/mm2: individual animals. The procedure: Fig. 4 PXS-5505 administered in a KPC in vivo survival study. a, Schematic of the KPC in vivo survival study. Presence of a primary tumor in KPC mice was confirmed by two independent researchers (positive diagnosis) before commencement of daily treatment (Tx) on one of four treatment arms as follows: vehicle, 0.9% saline; Gem, twice-weekly gemcitabine (100 mg kg^−1 i.p.); PXS-5505, daily PXS-5505 at 20 mg kg^−1 i.p.; and PXS-5505 + Gem, daily PXS-5505 at 20 mg kg^−1 i.p. + twice-weekly gemcitabine (100 mg kg^−1 i.p.). b, Table of median survival (since diagnosis/commencement of treatment) across the four treatment groups (n = 30 biologically independent animals (vehicle), n = 31 biologically independent animals (Gem), n = 36 biologically independent animals (PXS-5505), n = 46 biologically independent animals (PXS-5505 + Gem)). c, Kaplan–Meier curves for overall survival across treatment arms (n = 30 biologically independent animals (vehicle), n = 31 biologically independent animals (Gem), n = 36 biologically independent animals (PXS-5505), n = 46 biologically independent animals (PXS-5505 + Gem)). P values determined by log-rank (Mantel–Cox) test. d, Representative maximum intensity projections of SHG multiphoton imaging for tumors from each treatment group (n = 1 FOV taken from one biologically independent animal per group) at end point (scale bars, 100 μm) and quantification of SHG peak signal intensity (n = 5 biologically independent animals per group and five FOV per animal). Data are mean ± s.d. […] Quantification of metastases (n = 18 biologically independent animals (vehicle), n = 18 biologically independent animals (Gem), n = 17 biologically independent animals (PXS-5505), n = 15 biologically independent animals (PXS-5505 + Gem)). Data are mean ± s.d.
The 4-µm formalin-fixed paraffin-embedded (FFPE) sections were cut and stained for H&E following standard histopathology methodologies or stained for CK19 using the Bond RX H2(30) protocol detailed above. […] The total number of liver metastases were quantified and determined using QuPath[57].

Several values for one entry are separate records, joined by “and”; a condition that tells them apart may be missing. Equal values may be shown once.

As to `Nc1ccn([C@@H]2O[C@H](CO)[C@@H](O)C2(F)F)c(=O)n1` [Gem, gemcitabine], in experiment [1], the metastases/mm2 was 1.138e-5 /mm2 and 9.508e-5 /mm2 and 3.779e-5 /mm2 and 0 /mm2 and 1.36e-5 /mm2 and 7.872e-6 /mm2 and 6.17e-6 /mm2; the “number of metastatic foci in liver” value was “fewer”; the “size of metastatic foci in liver” value is recorded as “smaller”. For the same compound, the “metastatic foci / metastatic burden in the liver” value in the experiment on KPC mouse model of PDAC (compared to vehicle) is on record as “did not reduce the number of metastatic foci”. Moreover, the “liver metastases/mm2” value with KPC mouse model of PDAC was 0.000998 /mm2 and 0.00153 /mm2 and 0.000533 /mm2 and 0.002596 /mm2 and 0.002539 /mm2 and 0.002266 /mm2 and 0.001775 /mm2 and 0.001805 /mm2 and 0.001681 /mm2 and 0.002472 /mm2 and 0.001465 /mm2 and 0.003681 /mm2 and 0.001157 /mm2 and 0.004279 /mm2 and 0.0007747 /mm2 and 0.000926 /mm2 and 0.002131 /mm2 and 0.001372 /mm2.
Regarding `Cl.Cl.NC/C=C(\F)CS(=O)(=O)c1cccc2cccnc12.O` [PXS-5505, (Z)-3-fluoro-4-(quinolin-8-ylsulfonyl)but-2-en-1-amine dihydrochloride monohydrate], in experiment [1], the metastases/mm2 was 0.0002211 /mm2 and 8.732e-6 /mm2 and 2.758e-6 /mm2 and 0.0001431 /mm2 and 0.0002677 /mm2 and 0.0002826 /mm2 and 0.0003511 /mm2 and 0.0007717 /mm2 and 3.2079e-5 /mm2; the “number of metastatic foci in liver” value is recorded as “small decrease in number”; the “size of metastatic foci in liver” value was “not size of metastatic foci”. Also, in the experiment with KPC mouse model of PDAC, the “liver metastases/mm2” value is 0.001562 /mm2 and 0.001978 /mm2 and 0.00288 /mm2 and 0.001774 /mm2 and 0.002087 /mm2 and 0.001249 /mm2 and 0.00165 /mm2 and 0.00324 /mm2 and 0.001709 /mm2 and 0.002256 /mm2 and 0.001847 /mm2 and 0.001474 /mm2 and 0.001116 /mm2 and 0.0009543 /mm2 and 0.001461 /mm2 and 0.00148 /mm2 and 0.001125 /mm2.
